Results published in patent US20260097083A1, “METHOD FOR PRODUCING PANCREATIC ENDODERM CELLS” (Kyoto University, priority 2022, published 2026).
Counter-ions that a name gives are not always drawn.

Legend:
[1] = tested on: NKX6.1-positive pancreatic endoderm cells derived from human iPS cells; test: Screening of senescence-related reagents; type: cell-based
Experimental: FIG. 2-A A schematic diagram illustrating senescence-related reagent screening. […] After the elapse of one week, the cells were counted under a fluorescence microscope. Cells were differentiated to a pancreatic endoderm cell level using a stepwise differentiation-inducing method, and were then re-seeded on a 24-well plate at 2×10^5/well. The following culture media were added to these cultured cells, and the cells were cultured for 1 week. […] After fixed using 4% PFA, the cells were subjected to β-gal staining and NKX6.1 antibody immunostaining, and fluorescently stained images were acquired using BZ-800 (Keyence). The number of NKX6.1-positive cells, the NKX6.1-positive ratio, and the β-gal-positive ratio were calculated using the BZ-[…]/Macro Cell Count function of that microscope. FIGS. 2-A and 3-A show the outline of this procedure. A reagent enabling proliferation of pancreatic endoderm cells derived from human iPS cells was searched for in the senescence-related reagents. […] Then, (1) the number of NKX6.1-positive cells, or (2) the ratio of NKX6.1-positive cells and the ratio of β gal-positive cells were measured after the culture. FIGS. 2-B to 2-D show the results.

[2] = tested on: pancreatic endoderm cells (NKX6.1-positive); conditions: added to medium containing Y-27632 50 μM, 6 days, FIG. 7
Experimental: The cells on Day 21 of expansion culture were cultured for 6 days using a culture medium obtained by adding various growth factors and small-molecule compounds to a culture medium for expansion culture containing Y-27632. The other conditions were the same as those of the screening of senescence-related reagents.
After passaged three times using a culture medium to which Y-27632 (50 μM) had been added, pancreatic endoderm cells were seeded on a 24-well plate coated with iMatrix at 2.0×10^5 cells/well. Each of screening reagents was added to the culture medium containing Y-27632 (50 μM), and then the cells were cultured. After 6 days, the ratio of NKX6.1-positive cells was checked through cell immunostaining.

[3] = tested on: PDX1+/NKX6.1+ pancreatic endoderm cells derived from human iPS cells; test: Examination of other ROCK inhibitors for proliferating pancreatic endoderm cells; type: cell-based; conditions: 1 week, FIGS. 3-B and 3-C
Experimental: FIG. 3-A A schematic diagram illustrating an experiment of examining other ROCK inhibitors. […] After the elapse of one week, the cells were counted under a fluorescence microscope.
Cells were differentiated to a pancreatic endoderm cell level using a stepwise differentiation-inducing method, and were then re-seeded on a 24-well plate at 2×10^5/well. The following culture media were added to these cultured cells, and the cells were cultured for 1 week. The culture medium for the Control group was improved MEM to which 0.5×B-27 Supplement, 100 U/ml penicillin/streptomycin, 100 ng/ml KGF/FGF7, 50 ng/ml EGF, and 10 mM nicotinamide had been added. […] After fixed using 4% PFA, the cells were subjected to β-gal staining and NKX6.1 antibody immunostaining, and fluorescently stained images were acquired using BZ-800 (Keyence). The number of NKX6.1-positive cells, the NKX6.1-positive ratio, and the β-gal-positive ratio were calculated using the BZ-H4CM/Macro Cell Count function of that microscope. FIGS. 2-A and 3-A show the outline of this procedure.
The experiments were conducted in the same manner as in Example 1. FIGS. 3-B and 3-C show the results.

CC1(C)CCC(c2ccc(Cl)cc2)=C(CN2CCN(c3ccc(C(=O)NS(=O)(=O)c4ccc(N[C@H](CCN5CCOCC5)CSc5ccccc5)c(S(=O)(=O)C(F)(F)F)c4)cc3)CC2)C1 [ABT263]
ratio of β gal-positive cells (senescent cells) ([1]; 1 week, FIG. 2-D): reduction in the ratio of β gal-positive cells
cause inferred for the reduction in β gal-positive ratio ([1]; inferred from FIG. 2-B and 2-D): toxicity

Cc1cccc(-c2n[nH]cc2-c2ccc3ncccc3n2)n1 [ALK5 inhibitor, 2-[3-[6-methylpyridin-2-yl]-1H-pyrazol-4-yl]-1,5-naphthyridine]
ratio of NKX6.1-positive cells (screening outcome) [2]: identified as candidates for a factor for improving expansion culture

O=S(=O)(c1cccc2cnccc12)N1CCCNCC1 [Fasudil hydrochloride]
effect of proliferating pancreatic endoderm cells (total cells, NKX6.1-positive cells) [3]: exhibited the effect of proliferating pancreatic endoderm cells

CCn1c(-c2nonc2N)nc2cnc(Oc3cccc(NC(=O)c4ccc(OCCN5CCOCC5)cc4)c3)cc21 [GSK269962]
effect of proliferating pancreatic endoderm cells (total cells, NKX6.1-positive cells) [3]: exhibited the effect of proliferating pancreatic endoderm cells

CC1=C(C(=O)Nc2cc3cn[nH]c3cc2F)C(c2ccc(C(F)(F)F)cc2)CC(=O)N1 (centres unmarked) [GSK429286A]
effect of proliferating pancreatic endoderm cells (total cells, NKX6.1-positive cells) [3]: exhibited the effect of proliferating pancreatic endoderm cells

Cc1cncc2cccc(S(=O)(=O)N3CCCNC[C@@H]3C)c12 [H1152]
effect of proliferating pancreatic endoderm cells (total cells, NKX6.1-positive cells) [3]: exhibited the effect of proliferating pancreatic endoderm cells

O=C(NCc1ccccc1)c1csc(Nc2ccncn2)n1 [Thiazovivin]
effect of proliferating pancreatic endoderm cells (total cells, NKX6.1-positive cells) [3]: exhibited the effect of proliferating pancreatic endoderm cells
